# According to patent publication US12637480B2, “Heterocyclic compounds as sting modulators” (BEIGENE, LTD., priority 2020, dated 2026):
# pEC50: −log10 of the molar value. Where a name gives a salt, the structure may show the parent alone.
# Key:
# [1] = biological target: human STING (hSTING) R232 variant in THP1-Dual KI-hSTING-R232 Cells (Homo sapiens, UniProt Q86WV6, H232R); experiment: STING cellular assay in THP1-Dual KI-hSTING-R232 cells (ISG54 Lucia luciferase reporter, QUANTI-Luc)
# [2] = biological target: human STING (hSTING) HAQ variant in THP1-Dual HAQ Cells (Homo sapiens, UniProt Q86WV6, G230A/H232R/R293Q/R71H); experiment: STING cellular assay in THP1-Dual HAQ cells (ISG54 Lucia luciferase reporter, QUANTI-Luc)
# human STING (hSTING) HAQ variant in THP1-Dual HAQ Cells, sequence (Q86WV6 whole entry R71H/G230A/H232R/R293Q): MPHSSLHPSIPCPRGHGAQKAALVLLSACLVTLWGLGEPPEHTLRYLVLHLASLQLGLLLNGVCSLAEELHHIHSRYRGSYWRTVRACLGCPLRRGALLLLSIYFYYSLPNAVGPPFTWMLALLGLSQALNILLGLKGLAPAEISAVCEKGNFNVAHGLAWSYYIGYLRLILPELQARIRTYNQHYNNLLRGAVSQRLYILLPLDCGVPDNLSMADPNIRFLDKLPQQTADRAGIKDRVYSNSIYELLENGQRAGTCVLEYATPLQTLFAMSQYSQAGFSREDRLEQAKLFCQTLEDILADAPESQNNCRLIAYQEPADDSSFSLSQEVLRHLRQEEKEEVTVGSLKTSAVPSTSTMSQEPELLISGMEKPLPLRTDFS
# human STING (hSTING) R232 variant in THP1-Dual KI-hSTING-R232 Cells, sequence (Q86WV6 whole entry H232R): as the sequence (Q86WV6 whole entry R71H/G230A/H232R/R293Q) above, with H71R, A230G, Q293R counted along it
Compound,pEC50 [1],pEC50 [2]
CCn1nc(C)cc1C(=O)Nc1nc2cc(C(N)=O)cnc2n1C/C=C/Cn1c2nc(-c3cc(C)nn3CC)ncc2c2cc(C(N)=O)cc(OCCC3CCNCC3)c21 [Example 6-AB],7.54,6.17
CCn1nc(C)cc1C(=O)Nc1nc2cc(C(N)=O)cnc2n1C/C=C/Cn1c2nc(-c3cc(C)nn3CC)ncc2c2cc(C(N)=O)cc(OCCCC3CCNCC3)c21 [Example 7-AB],7.80,6.52
"CCn1nc(C)cc1C(=O)Nc1nc2cc(C(N)=O)cnc2n1C/C=C/Cn1c2nc(-c3cc(C)nn3CC)ncc2c2cc(C(N)=O)cc(OCCC3CCN(C(=O)OC(C)(C)C)CC3)c21 [Example-6-AA, tert-butyl (E)-4-(2-((6-carbamoyl-9-(4-(6-carbamoyl-2-(1-ethyl-3-methyl-1H-pyrazole-5-carboxamido)-3H-imidazo[4,5-b]pyridin-3-yl)but-2-en-1-yl)-2-(1-ethyl-3-methyl-1H-pyrazol-5-yl)-9H-pyrimido[4,5-b]indol-8-yl)oxy)ethyl)piperidin-1-carboxylate]",9.05,7.31
"CCn1nc(C)cc1C(=O)Nc1nc2cc(C(N)=O)cnc2n1C/C=C/Cn1c2nc(-c3cc(C)nn3CC)ncc2c2cc(C(N)=O)cc(OCCCN3CCNCC3)c21 [Example 2-AB-HCl, (E)-9-(4-(6-carbamoyl-2-(1-ethyl-3-methyl-1H-pyrazole-5-carboxamido)-3H-imidazo[4,5-b]pyridin-3-yl)but-2-en-1-yl)-2-(1-ethyl-3-methyl-1H-pyrazol-5-yl)-8-(3-(piperazin-1-yl)propoxy)-9H-pyrimido[4,5-b]indole-6-carboxamide hydrochloride]",7.96,6.25
"CCn1nc(C)cc1C(=O)Nc1nc2cc(C(N)=O)cnc2n1C/C=C/Cn1c2nc(-c3cc(C)nn3CC)ncc2c2cc(C(N)=O)cc(OCCCCNC)c21 [Example 3-AB-HCl, (E)-9-(4-(6-carbamoyl-2-(1-ethyl-3-methyl-1H-pyrazole-5-carboxamido)-3H-imidazo[4,5-b]pyridin-3-yl)but-2-en-1-yl)-2-(1-ethyl-3-methyl-1H-pyrazol-5-yl)-8-(4-(methylamino)butoxy)-9H-pyrimido[4,5-b]indole-6-carboxamide hydrochloride]",7.64,6.19
"CCn1nc(C)cc1C(=O)Nc1nc2cc(C(N)=O)cnc2n1C/C=C/Cn1c2nc(-c3cc(C)nn3CC)ncc2c2cc(C(N)=O)cc(OCCCN3CCN(C(=O)CON)CC3)c21 [Example 2-AC, (E)-8-(3-(4-(2-(aminooxy)acetyl)piperazin-1-yl)propoxy)-9-(4-(6-carbamoyl-2-(1-ethyl-3-methyl-1H-pyrazole-5-carboxamido)-3H-imidazo[4,5-b]pyridin-3-yl)but-2-en-1-yl)-2-(1-ethyl-3-methyl-1H-pyrazol-5-yl)-9H-pyrimido[4,5-b]indole-6-carboxamide]",8.00,6.93
"CCn1nc(C)cc1C(=O)Nc1nc2cc(C(N)=O)cnc2n1C/C=C/Cn1c2nc(-c3cc(C)nn3CC)ncc2c2cc(C(N)=O)cc(OCCCCN(C)C(=O)OC(C)(C)C)c21 [Example 3-AA, tert-butyl (E)-(4-((6-carbamoyl-9-(4-(6-carbamoyl-2-(1-ethyl-3-methyl-1H-pyrazole-5-carboxamido)-3H-imidazo[4,5-b]pyridin-3-yl)but-2-en-1-yl)-2-(1-ethyl-3-methyl-1H-pyrazol-5-yl)-9H-pyrimido[4,5-b]indol-8-yl)oxy)butyl)(methyl)carbamate]",9.28,8.39
"CCn1nc(C)cc1C(=O)Nc1nc2cc(C(N)=O)cnc2n1C/C=C/Cn1c2nc(-c3cc(C)nn3CC)ncc2c2cc(C(N)=O)cc(OCCC3CNC3)c21 [Example 4-AB, (E)-8-(2-(azetidin-3-yl)ethoxy)-9-(4-(6-carbamoyl-2-(1-ethyl-3-methyl-1H-pyrazole-5-carboxamido)-3H-imidazo[4,5-b]pyridin-3-yl)but-2-en-1-yl)-2-(1-ethyl-3-methyl-1H-pyrazol-5-yl)-9H-pyrimido[4,5-b]indole-6-carboxamide]",7.52,5.98
CCn1nc(C)cc1C(=O)Nc1nc2cc(C(N)=O)cnc2n1C/C=C/Cn1c2nc(-c3cc(C)nn3CC)ncc2c2cc(C(N)=O)cc(OCCCN(C)C(=O)CON)c21 [Example 1-AC],8.44,7.47
"CCn1nc(C)cc1C(=O)Nc1nc2cc(C(N)=O)cnc2n1C/C=C/Cn1c2nc(-c3cc(C)nn3CC)ncc2c2cc(C(N)=O)cc(OCCCC3CN(C(=O)OC(C)(C)C)C3)c21 [Example 5-AA, tert-butyl (E)-3-(3-((6-carbamoyl-9-(4-(6-carbamoyl-2-(1-ethyl-3-methyl-1H-pyrazole-5-carboxamido)-3H-imidazo[4,5-b]pyridin-3-yl)but-2-en-1-yl)-2-(1-ethyl-3-methyl-1H-pyrazol-5-yl)-9H-pyrimido[4,5-b]indol-8-yl)oxy)propyl)azetidine-1-carboxylate]",8.80,7.41

# More lines, in order of rising pEC50 [1], values ahead:
pEC50 [1],pEC50 [2],Compound
7.57,6.06,"CCn1nc(C)cc1C(=O)Nc1nc2cc(C(N)=O)cnc2n1C/C=C/Cn1c2nc(-c3cc(C)nn3CC)ncc2c2cc(C(N)=O)cc(OCCCC3CNC3)c21 [Example 5-AB, (E)-8-(3-(azetidin-3-yl)propoxy)-9-(4-(6-carbamoyl-2-(1-ethyl-3-methyl-1H-pyrazole-5-carboxamido)-3H-imidazo[4,5-b]pyridin-3-yl)but-2-en-1-yl)-2-(1-ethyl-3-methyl-1H-pyrazol-5-yl)-9H-pyrimido[4,5-b]indole-6-carboxamide]"
8.21,6.45,"CCn1nc(C)cc1C(=O)Nc1nc2cc(C(N)=O)cnc2n1C/C=C/Cn1c2nc(-c3cc(C)nn3CC)ncc2c2cc(C(N)=O)cc(OCCCNC)c21 [Example 1-AB, (E)-9-(4-(6-carbamoyl-2-(1-ethyl-3-methyl-1H-pyrazole-5-carboxamido)-3H-imidazo[4,5-b]pyridin-3-yl)but-2-en-1-yl)-2-(1-ethyl-3-methyl-1H-pyrazol-5-yl)-8-(3-(methylamino)propoxy)-9H-pyrimido[4,5-b]indole-6-carboxamide]"
9.00,7.55,"CCn1nc(C)cc1C(=O)Nc1nc2cc(C(N)=O)cnc2n1C/C=C/Cn1c2nc(-c3cc(C)nn3CC)ncc2c2cc(C(N)=O)cc(OCCCC3CCN(C(=O)OC(C)(C)C)CC3)c21 [Example 7-AA, tert-butyl (E)-4-(3-((6-carbamoyl-9-(4-(6-carbamoyl-2-(1-ethyl-3-methyl-1H-pyrazole-5-carboxamido)-3H-imidazo[4,5-b]pyridin-3-yl)but-2-en-1-yl)-2-(1-ethyl-3-methyl-1H-pyrazol-5-yl)-9H-pyrimido[4,5-b]indol-8-yl)oxy)propyl)piperidine-1-carboxylate]"
9.11,8.32,"CCn1nc(C)cc1C(=O)Nc1nc2cc(C(N)=O)cnc2n1C/C=C/Cn1c2nc(-c3cc(C)nn3CC)ncc2c2cc(C(N)=O)cc(OCCC3CN(C(=O)OC(C)(C)C)C3)c21 [Example 4-AA, tert-butyl (E)-3-(2-((6-carbamoyl-9-(4-(6-carbamoyl-2-(1-ethyl-3-methyl-1H-pyrazole-5-carboxamido)-3H-imidazo[4,5-b]pyridin-3-yl)but-2-en-1-yl)-2-(1-ethyl-3-methyl-1H-pyrazol-5-yl)-9H-pyrimido[4,5-b]indol-8-yl)oxy)ethyl)azetidine-1-carboxylate]"
9.24,8.47,CCn1nc(C)cc1C(=O)Nc1nc2cc(C(N)=O)cnc2n1C/C=C/Cn1c2nc(-c3cc(C)nn3CC)ncc2c2cc(C(N)=O)cc(OCCCN(C)C(=O)OC(C)(C)C)c21 [Example 1-AA]
9.34,8.62,"CCn1nc(C)cc1C(=O)Nc1nc2cc(C(N)=O)cnc2n1C/C=C/Cn1c2nc(-c3cc(C)nn3CC)ncc2c2cc(C(N)=O)cc(OCCCN3CCN(C(=O)OC(C)(C)C)CC3)c21 [Example 2-AA, tert-butyl (E)-4-(3-((6-carbamoyl-9-(4-(6-carbamoyl-2-(1-ethyl-3-methyl-1H-pyrazole-5-carboxamido)-3H-imidazo[4,5-b]pyridin-3-yl)but-2-en-1-yl)-2-(1-ethyl-3-methyl-1H-pyrazol-5-yl)-9H-pyrimido[4,5-b]indol-8-yl)oxy)propyl)piperazine-1-carboxylate]"
